Counter-ions that a name gives are not always drawn.
Key:
Phenylquinone Writhing = experiment: Phenylquinone-induced writhing in mice; assay type: in vivo, mouse (male Swiss albino); details: for ED50: ED50, mice (second results table); for Phenylquinone Writhing in Mice % Inhibition: p.o.
Description: A further test used to determine the utility of the compounds of the present invention is designated: DRUG EFFECTS ON PHENYLQUINONE-INDUCED WRITHING IN MICE […]
The objective of this test is to determine the ability of test drugs to inhibit the nociceptive (pain) response of mice injected with a chemical irritant. This test is a primary screen for both peripheral and centrally acting analgesic drugs.
Male Swiss albino mice (15-25 g). The animals are fasted for 18 hours prior to use but have free access to water.
(§1) Drug Preparation and Administration:
Drugs are dissolved or suspended according to their solubility in 0.5% methyl cellulose or 0.5% Tween 80. They are administered by gastric lavage in a volume of 5 ml/kg. For primary screening all drugs are administered at the arbitrary dosage of 200 mg/kg, p.o. to a group of 10 mice.
A modification of the method of Siegmund at el., Proc. Soc. Exp. Biol. Med., 95, 729-731 (1957) is used. Groups of 5 mice are dosed with the test compound or vehicle control. Sixty minutes later the animals are injected i.p. with 0.3 ml/20 g body weight of a 0.02% solution of phenylquinone (PBQ; 2-phenyl-1,4-benzoquinone) and placed in individual observation boxes. The numer of writhing or abdominal squirming movements made by each mouse during the following 15 min. period is counted. The experiment is repeated with another group of 5 mice and the mean number of writhes per mouse for a group of 10 mice is calculated.
Drug treated and vehicle-treated control groups are compared and the percentage protection conferred by the drug is calculated:
Percentage protection=(c-t)100/c […]
where c=mean number of writhes in the control group where t=mean number of writhes in the test drug group

Adjuvant Edema = experiment: Preventative Adjuvant Edema (Freund's complete adjuvant, hind paw volume); assay type: in vivo, rat (male Sprague Dawley); details: for ED50 / inhibition in vivo at 25 mg/kg / inhibition in vivo at 10 mg/kg: po; for ED50: ED50, rat (second results table); for inhibition in vivo at 25 mg/kg / inhibition in vivo at 10 mg/kg: 72 h, rat (second results table), read-out: Preventative Adjuvant Edema percent inhibition; for Preventative Adjuvant Edema % Inhibition: p.o., rat
Description: This test is a primary screen for anti-inflammatory drugs.
Male Sprague Dawley rats (180-200 g) are used. The animals have free access water but food is withdrawn 18 hours before testing.
Drug Preparations and Administration:
Freund's complete adjuvant is prepared by suspending 5 mg killed and dried Mycobacterium butyricum (Difco) in 1 ml liquid paraffin. The test compounds are dissolved in distilled water or suspended in distilled water with a few drops of Tween 80 according to their solubility. For primary screening all drugs are administrated by gastric lavage at the arbitrary dosage of 100 mg/kg, p.o. in a volume of 0.5 ml/100 g body weight to groups of 10 animals.
The method is essentially that described by Wax et al., J. Pharmacol. Exp. Ther., 192, 166-171 (1975). Groups of rats are injected intradermally in the left hind paw with 0.1 ml of Freund's complete adjuvant. The test compound or vehicle is administrated before the adjuvant, 24 hours and 48 hours after the adjuvant (day 0, 1 and 2). The injected hind paw volume is measured before the injection of adjuvant and 24 hrs. after the last drug administration (day 3) by means of a plethysmometer (Buxco Electronics Inc.). The difference between then hind paw volume on day 0 and day 3 represents the edema volume. Phenylbutazone (50 mg/kg, p.o.) is included as a positive control.
The mean edema volume (expressed as ml±SEM) is calculated for each group and the percentage protection conferred by the drug is calculated:
where c is the mean edema volume for the untreated controls and t is the mean edema volume for the drug treated group.

inflamed paw = experiment: Paw Pressure Test in the Rat (Freund's adjuvant inflamed paw, pain threshold); assay type: in vivo, rat (male Sprague Dawley); details: for ED50: po
Description: A still further test used to determine the utility of the compounds of the present invention is designated: PAW PRESSURE TEST IN THE RAT
The objective of this test is to assess the potency of peripheral and central acting drugs in inhibiting the reaction of rats to painful stimulation applied to an inflamed paw.
Male Sprague Dawley rats (180-200 g) are used. The animals are fasted overnight prior to drug administration.
as §1
Freund's Complete Adjuvant (FCA) is prepared by suspending 5 mg killed and dried mycobacterium butyricum (Difco) in 1 ml liquid paraffin. The test compounds are dissolved, or suspended with a few drops of Tween 80, in distilled water according to their solubility. They are administered by gastric gavage in a volume of 0.5 ml/100 g body weight to groups of 10 animals.
Ten rats are used per group. The method is essentially that described by Randall, et al., Arch. Int. Pharmacodyn. 111, 409 (1957) and the apparatus which is used to apply pressure to the paw (Analgesy-meter for the rat paw, Ugo Basile from Coulbourn Instruments) is a modification of that described by Gilfoil et al., J. Pharmacol, 142, 1 (1963). The instrument is basically a device which exerts a force that increases at a constant rate. The force is continuously monitored by a pointer moving along a linear scale and is measured in grams. The inflammatory reaction is induced in the left hind paw of rats by injecting 0.1 ml of Freund's adjuvant intradermally. The test compound or vehicle is administered 24 hours after the adjuvant. Prior to drug administration the rats are selected for their paw sensitivity. Rats responding to a pain threshold greater than 10 g applied to the inflamed paw are rejected. The pain threshold (vocalization) is determined 1 and 3 hours later in the inflamed paw and the normal paw of the treated and control groups. The higher of the 2 readings will be considered as representative of the drug effect on the pain threshold.
Presentation of results and Criteria for Activity:
Each animal which has a reading 1.5 times greater than the mean reading of the control-group will be considered as responsive to treatment. The number of animals showing an analgesic effect is then determined in each group.
The ED50 (dose which causes analgesia in 50% of the animals) using at least 3 doses is then determined, by the method described in Litchfield et al., J. Pharmacol. Exp. Ther., 96, 99 (1949).

[1] = ED50, rat (second results table)
[2] = dose which causes analgesia in 50% of the animals, rat

SMILES: C=CCC1CCC(C)(CC(=O)O)c2[nH]c3ccccc3c21 (stereo not drawn) [Example 12]
- ED50 (Phenylquinone Writhing; Mus musculus, po): 18.7 mg/kg
- ED50 (Adjuvant Edema): 6 mg/kg
- ED50 (inflamed paw; [1]): 1.9 mg/kg

SMILES: C=CC[C@@H]1CC[C@](CC)(CC(=O)O)c2[nH]c3c(Br)ccc(C)c3c21 (relative stereo) [Example 33]
- ED50 (Phenylquinone Writhing; Mus musculus, po): 4.5 mg/kg
- inhibition in vivo at 25 mg/kg (Adjuvant Edema): 27%
- ED50 (inflamed paw; [1]): 0.93 mg/kg

SMILES: C=CC[C@@H]1CC[C@](CC)(CC(=O)O)c2[nH]c3c(CC)cccc3c21 (relative stereo) [Example 1, cis-1,8-Diethyl-2,3,4,9-tetrahydro-4-(2-propenyl)-1H-carbazole-1-acetic Acid]
- Phenylquinone Writhing in Mice % Inhibition (Phenylquinone Writhing; 10.6 mg/kg): 31%
- Phenylquinone Writhing in Mice % Inhibition (Phenylquinone Writhing; 25 mg/kg): 60-80%
- Phenylquinone Writhing in Mice % Inhibition (Phenylquinone Writhing; 200 mg/kg): 94%
- Preventative Adjuvant Edema % Inhibition (Adjuvant Edema; 10 mg/kg): 31%
- Preventative Adjuvant Edema % Inhibition (Adjuvant Edema; 25 mg/kg): 44%
- Preventative Adjuvant Edema % Inhibition (Adjuvant Edema; 50 mg/kg): 38%
- ED50 (inflamed paw; [2]): 0.02 mg/kg

SMILES: C=CC[C@@H]1CC[C@](CC)(CC(=O)O)c2[nH]c3c(Cl)ccc(C)c3c21 (relative stereo) [Example 34]
- ED50 (Phenylquinone Writhing; Mus musculus, po): 7.6 mg/kg
- ED50 (Adjuvant Edema): 2.6 mg/kg
- ED50 (inflamed paw; [1]): 0.46 mg/kg

SMILES: C=CC[C@@H]1CC[C@](CC)(CC(=O)O)c2[nH]c3c(C)ccc(C)c3c21 (relative stereo) [Example 31]
- ED50 (Phenylquinone Writhing; Mus musculus, po): 2.3 mg/kg
- inhibition in vivo at 25 mg/kg (Adjuvant Edema): 42%
- ED50 (inflamed paw; [1]): 0.3 mg/kg

SMILES: C=CC[C@@H]1CC[C@](CC)(CC(=O)O)c2[nH]c3cc(CC)ccc3c21 (relative stereo) [Example 7]
- ED50 (Phenylquinone Writhing; Mus musculus, po): 10 mg/kg
- inhibition in vivo at 25 mg/kg (Adjuvant Edema): 36%
- ED50 (inflamed paw; [1]): 0.01 mg/kg

SMILES: C=CC[C@@H]1CC[C@](CC)(CC(=O)O)c2[nH]c3ccccc3c21 (relative stereo) [Example 3, cis-1-Ethyl-2,3,4,9-tetrahydro-4-(2-propenyl)-1H-carbazole-1-acetic Acid]
- Phenylquinone Writhing in Mice % Inhibition (Phenylquinone Writhing; 20 mg/kg): 50%
- Preventative Adjuvant Edema % Inhibition (Adjuvant Edema; 10 mg/kg): 50%
- ED50 (inflamed paw; [2]): 0.01 mg/kg

SMILES: C=CC[C@@H]1CC[C@](CC)(CC(=O)O)c2[nH]c3ccc(CC)cc3c21 (relative stereo) [Example 6]
- ED50 (Phenylquinone Writhing; Mus musculus, po): 103 mg/kg
- inhibition in vivo at 10 mg/kg (Adjuvant Edema): 36%
- inhibition in vivo at 25 mg/kg (Adjuvant Edema): 21%
- ED50 (inflamed paw; [1]): 0.01 mg/kg

SMILES: C=CC[C@@H]1CC[C@](CC)(CC(=O)O)c2[nH]c3c(C)c(F)ccc3c21 (relative stereo) [Example 29]
- ED50 (Phenylquinone Writhing; Mus musculus, po): 12.3 mg/kg
- ED50 (Adjuvant Edema): 6.4 mg/kg
- ED50 (inflamed paw; [1]): 0.1 mg/kg

SMILES: C=CC[C@@H]1CC[C@](CC)(CC(=O)O)c2[nH]c3c(CCC)cccc3c21 (relative stereo) [Example 5]
- ED50 (Phenylquinone Writhing; Mus musculus, po): 28.7 mg/kg
- inhibition in vivo at 10 mg/kg (Adjuvant Edema): 29%
- inhibition in vivo at 25 mg/kg (Adjuvant Edema): 39%
- ED50 (inflamed paw; [1]): 0.009 mg/kg

SMILES: C=CC[C@@H]1CC[C@](CC)(CC(=O)O)c2[nH]c3c(CC)cccc3c21 [Example 44, (1R-cis)-1,8-Diethyl-2,3,4,9-tetrahydro-4-(2-propenyl)-1H-carbazole-1-acetic Acid Benzenemethanamine Salt (1:1)]
- inhibition in vivo at 25 mg/kg (Phenylquinone Writhing; Mus musculus, po, dose 25 mg/kg, mice (second results table), read-out: Phenylquinone Writhing in Mice percent inhibition): 5%
- inhibition in vivo at 25 mg/kg (Adjuvant Edema): 0%
- Paw Pressure Test in the Rat percent inhibition (inflamed paw; dose 1 mg/kg, rat): 30%
- Paw Pressure Test in the Rat percent inhibition (inflamed paw; dose 5 mg/kg, rat): 40%

SMILES: C=CC[C@H]1CC[C@](CC)(CC(=O)O)c2[nH]c3c(CC)cccc3c21 (relative stereo) [Example 4]
- inhibition in vivo at 100 mg/kg (Phenylquinone Writhing; Mus musculus, po, dose 100 mg/kg, mice (second results table), read-out: Phenylquinone Writhing in Mice percent inhibition): 9%
- inhibition in vivo at 25 mg/kg (Adjuvant Edema): 35%
- ED50 (inflamed paw; [1]): 0.02 mg/kg

SMILES: C=CC[C@@H]1CC[C@](CC)(CC(=O)O)c2[nH]c3c(C)c(Cl)ccc3c21 (relative stereo) [Example 30, cis-7-chloro-1-ethyl-2,3,4,9-tetrahydro-8-methyl-4-(2-propenyl)-1H-carbazole-1-acetic acid]
- ED50 (Phenylquinone Writhing; Mus musculus, po): 2.6 mg/kg
- ED50 (Adjuvant Edema): 15 mg/kg
- ED50 (inflamed paw; [1]): 0.007 mg/kg

SMILES: C=CC[C@@H]1CC[C@](CC)(CC(=O)O)c2c1c1cccc(CC)c1n2C (relative stereo) [Example 43, cis-1,8-Diethyl-2,3,4,9-tetrahydro-9-methyl-4-(2-propenyl)-1H-Carbazole-1-acetic Acid]
- inhibition in vivo at 200 mg/kg (Phenylquinone Writhing; Mus musculus, po, dose 200 mg/kg, mice (second results table), read-out: Phenylquinone Writhing in Mice percent inhibition): 32%
- ED50 (inflamed paw; [1]): 8 mg/kg

From patent US4616028A, “Substituted 2,3,4,9-tetrahydro-1H-carbazole-1-acetic acid derivatives, compositions and use” (American Home Products Corporation, priority 1985, dated 1986)
